# How the values were obtained:
# [1] = Half life (t 1/2) during hydrolysis catalyzed by brain extract; type: ADME, tissue-based
# [2] = Half life (t 1/2) during hydrolysis caused by human serum; type: ADME, organism-based
# [3] = Half life (t 1/2) during base-catalyzed hydrolysis; type: ADME
# [4] = Half life (t 1/2) during pig liver esterase-catalyzed hydrolysis; type: ADME, organism-based, Sus scrofa
SMILES,half-life [1] [h],half-life [2] [h],half-life [3] [h],half-life [4] [h]
[N-]=[N+]=N[C@H]1C[C@H](n2ccc(=O)[nH]c2=O)O[C@@H]1COP(=O)(OC[C@H]1O[C@@H](n2ccc(=O)[nH]c2=O)C[C@@H]1N=[N+]=[N-])Oc1ccccc1,17,17,17,17
COC(=O)c1ccccc1OP(=O)(OC[C@H]1O[C@@H](n2ccc(=O)[nH]c2=O)C[C@@H]1N=[N+]=[N-])OC[C@H]1O[C@@H](n2ccc(=O)[nH]c2=O)C[C@@H]1N=[N+]=[N-],4,4,1.1,20
[N-]=[N+]=N[C@H]1C[C@H](n2ccc(=O)[nH]c2=O)O[C@@H]1COP(=O)(OC[C@H]1O[C@@H](n2ccc(=O)[nH]c2=O)C[C@@H]1N=[N+]=[N-])Oc1ccccc1C(=O)Oc1ccccc1,5,4,1.1,1
O=C(OC1O[C@H](CO)[C@@H](O)[C@H](O)[C@H]1O)c1ccccc1OP(=O)(OC[C@@H]1CC[C@H](n2ccc(=O)[nH]c2=O)O1)OC[C@@H]1CC[C@H](n2ccc(=O)[nH]c2=O)O1 (stereo partly specified),> 72,48,17,> 48
